{"source": "ChEMBL document CHEMBL4706686", "about": "“Design, synthesis and biological evaluation of dihydrofurocoumarin derivatives as potent neuraminidase inhibitors” (Bioorg Med Chem Lett, 2021)", "experiment": "Inhibition of Influenza virus H5N1 neuraminidase", "design": "species or system H5N1 subtype"}
{"compound": "Cc1cc(=O)oc2c3c(ccc12)O/C(=C\\c1ccc(O)c([N+](=O)[O-])c1)C3=O", "values": [{"measurement": "IC50", "value": 0.02, "unit": "µM"}]}
{"compound": "Cc1cc(=O)oc2c3c(ccc12)O/C(=C\\c1ccc(Cl)cc1Cl)C3=O", "values": [{"measurement": "IC50", "value": 36.2, "unit": "µM"}]}
{"compound": "Cc1cc(=O)oc2c3c(ccc12)O/C(=C\\c1ccc(OS(C)(=O)=O)cc1)C3=O", "values": [{"measurement": "IC50", "value": 32.4, "unit": "µM"}]}
{"compound": "COc1ccc(/C=C2\\Oc3ccc4c(C)cc(=O)oc4c3C2=O)cc1O", "values": [{"measurement": "IC50", "value": 0.04, "unit": "µM"}]}
{"compound": "COc1cc(/C=C2\\Oc3ccc4c(C)cc(=O)oc4c3C2=O)cc(OC)c1O", "values": [{"measurement": "IC50", "value": 0.15, "unit": "µM"}]}
{"compound": "CCCOc1ccc(/C=C2\\Oc3ccc4c(C)cc(=O)oc4c3C2=O)cc1", "values": [{"measurement": "IC50", "value": 45.8, "unit": "µM"}]}
{"compound": "Cc1cc(=O)oc2c3c(ccc12)O/C(=C\\c1ccc([N+](=O)[O-])c(O)c1)C3=O", "values": [{"measurement": "IC50", "value": 0.03, "unit": "µM"}]}
{"compound": "Cc1cc(=O)oc2c3c(ccc12)O/C(=C\\c1ccccn1)C3=O", "values": [{"measurement": "IC50", "value": 39.5, "unit": "µM"}]}
{"compound": "CCOc1cc(/C=C2\\Oc3ccc4c(C)cc(=O)oc4c3C2=O)ccc1O", "values": [{"measurement": "IC50", "value": 30, "unit": "µM"}]}
{"compound": "Cc1cc(=O)oc2c3c(ccc12)O/C(=C\\c1cc([N+](=O)[O-])ccc1F)C3=O", "values": [{"measurement": "IC50", "value": 99.8, "unit": "µM"}]}
{"compound": "CCC(CC)O[C@@H]1C=C(C(=O)O)C[C@H](N)[C@H]1NC(C)=O", "note": "[OSELTAMIVIR CARBOXYLATE]", "values": [{"measurement": "IC50", "value": 0.04, "unit": "µM"}]}
{"compound": "CCOC(=O)C1=C[C@@H](OC(CC)CC)[C@H](NC(C)=O)[C@@H](N)C1", "note": "[OSELTAMIVIR]", "values": [{"measurement": "IC50", "value": 0.1, "unit": "µM"}]}
